Tests used:
[1] = molecular target: T1, human α5β3γ2L GABAA receptors in HEK293 cells (Homo sapiens, UniProt P18507+P31644); assay: In vitro electrophysiological recording assay (α5-GABAAR relative efficacy), SyncroPatch; format: cell-based; conditions: Conc 0.1 μM; GABA EC10-20
T1 construct: expressed in transfected cells
From the text: Mouse L(tk^−) cells stably expressing human α1β3γ2, α2β3γ2, α3β3γ2, α5β3γ2 GABAARs generated by transfection of the individual subunits in the dexamethasone-inducible expression vector pMSGneo in mouse L(tk^−) cells (Hadingham et al., 1993, Mol. Pharmacol. 43:970-975 and 1993, Mol. Pharmacol. 44:1211-1218) were used for binding and functional assays. For certain compounds, HEK293 cells stable expressing the human α1β3γ2L, α2β3γ2L, α3β3γ2L and α5β3γ2L GABAA receptors were used to evaluate their functional effects in a SyncroPatch electrophysiology assay.
The efficacy of modulators was evaluated using either the automated patch-clamp platform QPatch16 (Sophion, Copenhagen, Denmark) or the SyncroPatch 384i (Nanion Technologies, Germany). Cells were harvested from flasks by enzymatic dissociation and re-suspended in serum-free medium.
For the Syncropatch recordings, a stacked addition protocol was used, in which GABA was rapidly applied and then washed off from the cell. All experiments were carried out at room temperature (20-22° C.) using a standard whole cell procedure. The currents recorded were acquired at 2 kHz and filtered using a Bessel filter. Whole-cell currents were measured at a holding potential of −80 mV.
For Syncropatch recordings, the extracellular recording solution contained: 140 mM NaCl, 4 mM KCl, 2 mM CaCl2), 1 mM MgCl2, 10 mM HEPES, 5 mM glucose (pH 7.4 and osmolarity of c. 300-310 mOsm/L). The intracellular recording solution contained: 90 mM KCl, 50 mM KF, 1.5 mM MgCl2, 11.1 mM EGTA and 10 mM HEPES (pH 7.2 and osmolarity of c. 300 mOsm/L). 2 mM of NaATP was added to the intracellular solution on the day of testing.
The effects of modulators were evaluated in the presence of a submaximal GABA concentration, giving typically 10-20% activation (GABA EC10-20) of the response elicited by a saturating GABA concentration. For QPatch recordings, to check and ensure baseline current stability before compound addition, five consecutive applications of GABA EC10-20 alone (each application with a 2 s duration, separated by minimum 1 min wash off periods) were performed before compound addition. The test compound was applied using the pipetting system of the QPatch system 1 min at least prior to co-application with GABA EC10-20. For SyncroPatch recordings, GABA EC20 alone was applied three times (1 s long applications, with wash steps in-between) before compound addition. This was followed by a 1-2 min pre-incubation with the test compound and then re-application of GABA EC10-20 in the presence of the compound. Finally, following a further wash step, a saturating concentration of GABA was applied, allowing the accurate evaluation for each cell of the percentage baseline activation elicited by the submaximal GABA applied.
The compounds were first dissolved in DMSO as a 10 mM stock and then further diluted to the testing concentrations so that the final DMSO concentration in the extracellular recording solution was kept constant at 0.1% for the QPatch recordings, or 0.2% for the SyncroPatch recordings.
The % efficacy of modulators was determined from the GABA elicited currents recorded in the presence and absence of the test compound, using the formula:
[((compound peak current−leak)−(GABA peak current−leak))/(GABA peak current−leak)]*100,
where ‘leak’ is the leak baseline current at −65 mV, ‘compound peak current’ is the current elicited by co-application of compound and GABA, and ‘GABA peak current’ is the current elicited by GABA alone during the 5th GABA application. The results were presented as ‘relative efficacy’ for each compound generally at a concentration equal or higher than 100 times their determined Ki. The relative efficacy of a compound was calculated by normalising its efficacy to the efficacy of methyl-6,7-dimethoxy-4-ethyl-beta-carboline-3-carboxylate (DMCM) that was separately determined produced an attenuation of GABA-induced currents of −57±4%, n=5.

[2] = molecular target: T2, human recombinant GABAAR containing α5β3γ2 subunits (benzodiazepine site) (Homo sapiens, UniProt P18507+P31644); assay: In vitro radioligand binding assay (α5-GABAAR Ki); conditions: inhibition of [3H]Ro15-1788 binding, membranes of L(tk−) cells expressing human α5β3γ2; read-out: α5-GABAAR Ki
T2 construct: expressed in transfected cells; host or cells: mouse L(tk−) cells, dexamethasone-inducible vector pMSGneo
Procedure, shortened: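 Displacement of 4 nM [^3H]flumazenil from the benzodiazepine site, read by filtration and scintillation, gave IC50, converted to Ki (Cheng-Prusoff, saturation-derived Kd). Receptor: human α5β3γ2 membranes from L(tk^−) cells, 50 μg protein/well; 1 h, 4° C; TP003 1 μM defined nonspecific binding.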

[3] = molecular target: T3, human α5β3γ2 GABAARs in mouse L(tk−) cells (Homo sapiens, UniProt P18507+P31644); assay: In vitro electrophysiological recording assay (α5-GABAAR relative efficacy), QPatch; format: cell-based; conditions: GABA EC10-20
T3 construct: expressed in transfected cells; host or cells: mouse L(tk−) cells, dexamethasone-inducible vector pMSGneo
Procedure, shortened: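 Whole-cell QPatch recordings at 20-22° C, −65 mV holding, in dexamethasone-induced (1 μM, 24 h) L(tk−) cells. Compound pre-applied ≥1 min, then co-applied with GABA EC10-20; percentage change in leak-corrected peak current, taken at ≥100× Ki, normalised to DMCM efficacy; 0.1% DMSO final.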

T1 sequence (P31644 32-462): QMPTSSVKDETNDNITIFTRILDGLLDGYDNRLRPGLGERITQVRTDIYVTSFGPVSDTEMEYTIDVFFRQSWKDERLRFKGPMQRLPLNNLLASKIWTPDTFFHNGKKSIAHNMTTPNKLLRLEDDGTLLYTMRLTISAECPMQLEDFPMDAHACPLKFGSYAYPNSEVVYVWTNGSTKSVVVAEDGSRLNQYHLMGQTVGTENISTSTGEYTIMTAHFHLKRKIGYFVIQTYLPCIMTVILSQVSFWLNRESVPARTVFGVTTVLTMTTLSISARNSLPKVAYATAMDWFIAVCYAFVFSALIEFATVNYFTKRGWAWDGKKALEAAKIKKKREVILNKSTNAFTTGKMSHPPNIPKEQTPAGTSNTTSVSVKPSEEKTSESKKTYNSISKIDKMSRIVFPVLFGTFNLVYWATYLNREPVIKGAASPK
T1 sequence (P28472 26-473 partner): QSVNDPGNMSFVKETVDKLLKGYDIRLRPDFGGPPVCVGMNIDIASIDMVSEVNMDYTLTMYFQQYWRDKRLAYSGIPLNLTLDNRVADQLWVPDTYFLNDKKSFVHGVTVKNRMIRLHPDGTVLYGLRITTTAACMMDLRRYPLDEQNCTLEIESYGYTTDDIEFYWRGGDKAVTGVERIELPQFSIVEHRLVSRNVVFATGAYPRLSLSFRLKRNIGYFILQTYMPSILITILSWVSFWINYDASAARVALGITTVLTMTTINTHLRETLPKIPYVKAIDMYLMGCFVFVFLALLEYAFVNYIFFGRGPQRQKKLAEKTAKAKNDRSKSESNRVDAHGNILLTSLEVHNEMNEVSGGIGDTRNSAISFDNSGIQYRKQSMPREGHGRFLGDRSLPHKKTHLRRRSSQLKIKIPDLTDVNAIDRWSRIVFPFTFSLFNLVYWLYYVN
T1 sequence (P18507 40-475): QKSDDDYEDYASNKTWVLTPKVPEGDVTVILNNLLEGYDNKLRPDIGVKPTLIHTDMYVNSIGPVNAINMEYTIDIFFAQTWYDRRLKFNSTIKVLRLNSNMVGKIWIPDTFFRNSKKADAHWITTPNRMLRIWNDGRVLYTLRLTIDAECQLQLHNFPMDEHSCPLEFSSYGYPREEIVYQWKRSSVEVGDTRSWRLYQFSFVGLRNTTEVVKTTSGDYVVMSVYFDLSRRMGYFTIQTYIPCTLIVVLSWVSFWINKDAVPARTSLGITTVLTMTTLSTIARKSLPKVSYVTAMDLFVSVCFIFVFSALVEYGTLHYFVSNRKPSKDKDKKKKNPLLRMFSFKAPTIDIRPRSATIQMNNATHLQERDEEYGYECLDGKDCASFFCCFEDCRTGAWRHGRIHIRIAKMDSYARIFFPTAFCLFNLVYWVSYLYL
T2 sequence (P31644 32-462): as the sequence (P31644 32-462) above
T2 sequence (P28472 26-473 partner): as the sequence (P28472 26-473 partner) above
T2 sequence (P18507 40-475): as the sequence (P18507 40-475) above
T3 sequence (P31644 32-462): as the sequence (P31644 32-462) above
T3 sequence (P28472 26-473 partner): as the sequence (P28472 26-473 partner) above
T3 sequence (P18507 40-475): as the sequence (P18507 40-475) above

α5-GABAAR Relative Efficacy (to DMCM), SyncroPatch [1]	Ki [2] [nM]	α5-GABAAR Relative Efficacy (to DMCM), Qpatch ([3]; Conc 1 μM)	α5-GABAAR Relative Efficacy (to DMCM), Qpatch ([3]; Conc 0.1 μM)	α5-GABAAR Relative Efficacy (to DMCM), Qpatch ([3]; Conc 0.3 μM)	α5-GABAAR Relative Efficacy (to DMCM), Qpatch ([3]; Conc 3 μM)	SMILES
−0.36	29.7	−0.68	–	–	–	COc1nc(-c2cnn(C)c2)ccc1NC(=O)c1c(-c2ccccc2)noc1C [Example 4, N-[2-Methoxy-6-(1-methylpyrazol-4-yl)-3-pyridyl]-5-methyl-3-phenyl-isoxazole-4-carboxamide]
−0.90	0.5	–	−0.76	–	–	COc1nc(-c2cnc(N)nc2)ccc1NC(=O)c1c(-c2ccccc2)noc1C [Example 43, N-[6-(2-Aminopyrimidin-5-yl)-2-methoxy-3-pyridyl]-5-methyl-3-phenyl-isoxazole-4-carboxamide]
−1.00	0.8	–	−0.81	–	–	CNc1ncc(-c2ccc(NC(=O)c3c(-c4ccccc4)noc3C)c(OC)n2)cn1 [Example 47, N-[2-Methoxy-6-[2-(methylamino)pyrimidin-5-yl]-3-pyridyl]-5-methyl-3-phenyl-isoxazole-4-carboxamide]
−0.83	2.4	–	–	−0.92	–	COc1nc(-c2cnc(C(F)(F)F)nc2)ccc1NC(=O)c1c(-c2ccccc2)noc1C [Example 53, N-[2-Methoxy-6-[2-(trifluoromethyl)pyrimidin-5-yl]-3-pyridyl]-5-methyl-3-phenyl-isoxazole-4-carboxamide]
−1.14	0.6	–	−0.94	–	–	COc1nc(-c2cnc(N)nc2)cnc1NC(=O)c1c(-c2ccccc2)noc1C [Example 67, N-[5-(2-Aminopyrimidin-5-yl)-3-methoxy-pyrazin-2-yl]-5-methyl-3-phenyl-isoxazole-4-carboxamide]
−0.56	3.2	−0.66	–	–	–	COc1nc(-c2cnoc2)ccc1NC(=O)c1c(-c2ccccc2)noc1C [Example 68, N-(6-Isoxazol-4-yl-2-methoxy-3-pyridyl)-5-methyl-3-phenyl-isoxazole-4-carboxamide]
−0.62	2.1	–	–	−1.00	–	COc1nc(-c2cnc(CN(C)C)nc2)ccc1NC(=O)c1c(-c2ccccc2)noc1C [Example 74, N-[6-[2-[(Dimethylamino)methyl]pyrimidin-5-yl]-2-methoxy-3-pyridyl]-5-methyl-3-phenyl-isoxazole-4-carboxamide]
−0.50	13	–	–	–	−0.71	COc1nc(-c2cnn3ncccc23)ccc1NC(=O)c1c(-c2ccccc2)noc1C [Example 83, N-(2-Methoxy-6-(pyrazolo[1,5-b]pyridazin-3-yl)pyridin-3-yl)-5-methyl-3-phenylisoxazole-4-carboxamide]
−0.94	1.7	–	–	−0.92	–	COc1nc(-c2cnc(N3CCC(O)CC3)nc2)ccc1NC(=O)c1c(-c2ccccc2)noc1C [Example 85, N-(6-(2-(4-Hydroxypiperidin-1-yl)pyrimidin-5-yl)-2-methoxypyridin-3-yl)-5-methyl-3-phenylisoxazole-4-carboxamide]
−0.44	5	−0.71	–	–	–	COc1nc(-c2cncc(OC(F)F)c2)ccc1NC(=O)c1c(-c2ccccc2)noc1C [Example 87, N-(5′-(Difluoromethoxy)-6-methoxy-[2,3′-bipyridin]-5-yl)-5-methyl-3-phenylisoxazole-4-carboxamide]
−0.62	3.1	−0.64	–	–	–	COc1nc(-c2ccc(N)nc2)ccc1NC(=O)c1c(-c2ccccc2)noc1C [Example 89, N-(6′-Amino-6-methoxy-[2,3′-bipyridin]-5-yl)-5-methyl-3-phenylisoxazole-4-carboxamide]
−0.47	13.5	–	–	–	−0.66	COc1nc(-c2cnc(O)c(C(F)(F)F)c2)ccc1NC(=O)c1c(-c2ccccc2)noc1C [Example 107, N-(6′-Hydroxy-6-methoxy-5′-(trifluoromethyl)-[2,3′-bipyridin]-5-yl)-5-methyl-3-phenylisoxazole-4-carboxamide]
−0.68	1.3	–	–	–	–	COc1nc(-c2ccc(CN3CC4COCC(C4)C3)cc2)ccc1NC(=O)c1c(-c2ccccc2)noc1C [Example 228, N-[2-methoxy-6-[4-(3-oxa-7-azabicyclo[3.3.1]nonan-7-ylmethyl)phenyl]-3-pyridyl]-5-methyl-3-phenyl-isoxazole-4-carboxamide]
−0.79	87.4	–	–	–	–	COc1nc(-c2cnoc2)ncc1NC(=O)c1c(-c2ccccc2)noc1C [Example 229, N-(2-isoxazol-4-yl-4-methoxy-pyrimidin-5-yl)-5-methyl-3-phenyl-isoxazole-4-carboxamide]
−1.10	1.4	–	–	–	–	COc1nc(-c2ccc(CN3CCOCC3)nc2)ccc1NC(=O)c1c(-c2ccccc2)noc1C [Example 230, N-(6-methoxy-6′-(morpholinomethyl)-[2,3′-bipyridin]-5-yl)-5-methyl-3-phenyl-isoxazole-4-carboxamide]
−1.00	1.3	–	–	–	–	COc1nc(-c2ccc(CN3CC4(COC4)C3)nc2)ccc1NC(=O)c1c(-c2ccccc2)noc1C [Example 231, N-(6′-((2-oxa-6-azaspiro[3.3]heptan-6-yl)methyl)-6-methoxy-[2,3′-bipyridin]-5-yl)-5-methyl-3-phenylisoxazole-4-carboxamide]
−0.73	0.6	–	–	–	–	COc1nc(-c2ccc(CN3CC4COCC(C4)C3)nc2)ccc1NC(=O)c1c(-c2ccccc2)noc1C [Example 232, N-(6′-((3-oxa-7-azabicyclo[3.3.1]nonan-7-yl)methyl)-6-methoxy-[2,3′-bipyridin]-5-yl)-5-methyl-3-phenylisoxazole-4-carboxamide]

SMILES	α5-GABAAR Relative Efficacy (to DMCM), SyncroPatch [1]	Ki [2] [nM]	α5-GABAAR Relative Efficacy (to DMCM), Qpatch ([3]; Conc 1 μM)	α5-GABAAR Relative Efficacy (to DMCM), Qpatch ([3]; Conc 0.1 μM)	α5-GABAAR Relative Efficacy (to DMCM), Qpatch ([3]; Conc 0.3 μM)	α5-GABAAR Relative Efficacy (to DMCM), Qpatch ([3]; Conc 3 μM)
COc1nc(-c2cnc(N)cn2)ccc1NC(=O)c1c(-c2ccccc2)noc1C.Cl [Example 55, N-[6-(5-Aminopyrazin-2-yl)-2-methoxy-3-pyridyl]-5-methyl-3-phenyl-isoxazole-4-carboxamide hydrochloride]	−0.93	3.4	−0.92	–	–	–

Source: patent US20240425491A1, “HETEROARYL COMPOUNDS USEFUL IN THE TREATMENT OF COGNITIVE DISORDERS” (University College Cardiff Consultants Limited, priority 2021, published 2024)
